# Source: US20150105409A1, “HDAC INHIBITORS, ALONE OR IN COMBINATION WITH BTK INHIBITORS, FOR TREATING NONHODGKIN'S LYMPHOMA” (Acetylon Pharmaceticals, Inc., priority 2013, published 2015)
# Columns and labels:
# Assay type in all cases: cell-based, human
# [1] = system: Mino MCL cells; assay: CellTiter-Blue cell viability, combination (CI analysis); details: 72 hours, single agent
# Description: Cell viability was next assessed using the CellTiter-Blue reagent (Promega).
# [2] = system: Z138 MCL cells; assay: as above; details: Z138, 72 hours, single agent
# Description: Cell viability was next assessed using the CellTiter-Blue reagent (Promega). The results of these experiments are shown in FIG. 8 and in the Table below.
# [3] = system: Mino cells; assay: Apoptosis by 7-AAD/Annexin V flow cytometry; details: 48 hours, Compound A 3 or 12.5 μM, ibrutinib 10 or 30 μM, alone or combined (FIGS. 2-3)
# Description: (§1) Annexin/PI flow cytometric analysis was used to determine percentage of apoptotic cells. […]
# [4] = system: Z138 cells; assay: Apoptosis by 7-AAD/Annexin V flow cytometry; details: Z138, 48 hours; Compound A 3 or 12.5 μM, ibrutinib 10 or 30 μM, alone or combined (FIGS. 2-3)
# Description: as §1
# [5] = system: Mino cells; assay: Cell cycle analysis by propidium iodide flow cytometry; details: 48 hours, Compound A 13 μM, ibrutinib 10 μM, alone or combined (FIG. 5)
# Experimental: Cells were fixed and stained with propidium iodide (PI) and were analyzed by flow cytometry.
# [6] = system: Mino cells; assay: Viability of MCL cells after inhibition of HDAC6
# [7] = system: Z138 cells; assay: Viability of MCL cells after inhibition of HDAC6
# [8] = at Fa of combination dose 1.3E−6/3.1E−6
# [9] = at Fa of combination dose 2.5E−6/6.2E−6
# [10] = at Fa of combination dose 5.0E−6/12.5E−6
# [11] = at Fa of combination dose 20.0E−6/50.0E−6
# [12] = at Fa of combination dose 78.1E−9/195.3E−9
# [13] = at Fa of combination dose 156.3E−9/390.6E−9
# [14] = at Fa of combination dose 312.5E−9/781.2E−9
# [15] = at Fa of combination dose 625.0E−9/1.6E−6
# [16] = at Fa of combination dose 10.0E−6/25.0E−6
structure (smiles),measurement,setting,value
"C=CC(=O)N1CCC[C@@H](n2nc(-c3ccc(Oc4ccccc4)cc3)c3c(N)ncnc32)C1 [ibrutinib, reference compound]",Dm (PCI-32765),[1]; [8],5.1E−6
same,Dm (PCI-32765),[1]; [9],10.2E−6
same,Dm (PCI-32765),[1]; [10],20.5E−6
same,Dm (PCI-32765),[1]; [11],83.0E−6
same,Dm (PCI-32765),[1]; [12],308.7E−9
same,Dm (PCI-32765),[1]; [13],621.3E−9
same,Dm (PCI-32765),[1]; [14],1.3E−6
same,Dm (PCI-32765),[1]; [15],2.5E−6
same,Dm (PCI-32765),[2]; [8],56.7E−6
same,Dm (PCI-32765),[2]; [9],146.1E−6
same,Dm (PCI-32765),[2]; [10],376.3E−6
same,Dm (PCI-32765),[2]; [16],969.0E−6
same,Dm (PCI-32765),[2]; [11],2.5E−3
same,Dm (PCI-32765),[2]; [12],1.3E−6
same,Dm (PCI-32765),[2]; [13],3.3E−6
same,Dm (PCI-32765),[2]; [14],8.6E−6
same,Dm (PCI-32765),[2]; [15],22.0E−6
same,induction of apoptosis,[3],induction of apoptosis
same,induction of apoptosis,[4],induction of apoptosis
same,cell cycle distribution,[5],little effect on cell cycle distribution
"O=C(CCCCCCNC(=O)c1cnc(N(c2ccccc2)c2ccccc2)nc1)NO [Compound A, 2-(diphenylamino)-N-(7-(hydroxyamino)-7-oxoheptyl)pyrimidine-5-carboxamide]",Dm (Cmpd A),[1]; [8],1.6E−6
same,Dm (Cmpd A),[1]; [9],13.1E−6
same,Dm (Cmpd A),[1]; [10],108.1E−6
same,Dm (Cmpd A),[1]; [16],894.0E−6
same,Dm (Cmpd A),[1]; [11],7.4E−3
same,Dm (Cmpd A),[1]; [12],338.3E−12
same,Dm (Cmpd A),[1]; [13],2.8E−9
same,Dm (Cmpd A),[1]; [14],23.1E−9
same,Dm (Cmpd A),[1]; [15],191.2E−9
same,Dm (Cmpd A),[2]; [8],1.7E−6
same,Dm (Cmpd A),[2]; [9],3.4E−6
same,Dm (Cmpd A),[2]; [10],6.8E−6
same,Dm (Cmpd A),[2]; [16],13.7E−6
same,Dm (Cmpd A),[2]; [11],27.7E−6
same,Dm (Cmpd A),[2]; [12],100.1E−9
same,Dm (Cmpd A),[2]; [13],202.2E−9
same,Dm (Cmpd A),[2]; [14],408.3E−9
same,Dm (Cmpd A),[2]; [15],824.5E−9
same,cell viability,[6],decreased viability
same,cell viability,[7],decreased viability
same,induction of apoptosis,[3],induction of apoptosis
same,induction of apoptosis,[4],induction of apoptosis
same,cell cycle distribution,[5],little effect on cell cycle distribution
